The values below come from patent publication US5321016A, “Use of certain substituted α-amino acids in treating stress-related psychiatric disorders” (Sandoz Pharmaceuticals Corp., priority 1986, dated 1994).

Assay [1] relates to plasma corticosterone. Briefly: inhibition of plasma corticosterone rise induced by social stress in mice. The format is in vivo, mouse (male, OF-1). As to conditions: 0.3 to 3 mg/kg p.o. The method, then: This can be shown in the following test:
One day before the experiment a group of 5 male mice (40-50 g, OF-1, Sandoz,Basle) were placed in a transparent makrolon cage Typ 3, which is cut in halves by a grid. The next day each mouse was given an oral dose of 0.3-30 mg/kg of a compound of the invention, Two hours later an isolated male mouse was introduced for 15 minutes into the empty half of the cage and two trained observers recorded the behaviour of the mice in terms of acts such as dig, push-dig and rattle. Blood plasma samples were then taken from the tested mice group and assayed for corticosterone concentrations using a modified method of Paerson-Murphy B. E., J. Clin. Endocrinology 27 (1967) 973-990. The procedure was repeated with a control group of 5 mice which was given only a solvent.

Assay [2] relates to NMDA (N-Methyl-D-aspartic acid) receptors. The assay can be described thus: inhibition of NMDA-induced depolarizations of the isolated amphibian spinal cord (competitive antagonism). Type of assay: cell-based, toad or frog. As to conditions: at 5 μM. From the text: The compounds of the invention further interact with excitatory amino acid systems, in particular they are competitive antagonists of NMDA (N-Methyl-D-aspartic acid) receptors, as indicated by an inhibitory effect on NMDA-induced depolarizations of the isolated amphibian spinal cord. This may be shown in the test performed in conventional manner (see for example D. R. Curtis et al., J. Physiol. (London) 150, 656-682 (1961) and R. H. Evans et al., Br. J. Pharmac. 67, 591-603 (1979) as follows:
A hemisected proximal part of the spinal cord of a toad or frog lies in a recording chamber being perfused by a Ringer solution (111 mM NaCl, 2 mM KCl, 2 mM CaCl2, 12 mM Glucose, Tris-buffer (pH 7.5, 10 mM). The dorsal root is pulled into the stimulating chambers, the ventral root into the recording chambers. A stimulator connected to the stimulating chambers is used. A DC high impedance preamplifier measures the DC potential between the ground lead sampling the main chamber and one of the recording chambers. The signal from the pre-amplifier is monitored on a CRO to display stimulated synaptic activity (dorsal root--ventral root potential, DR--VRP) or to a chart recorder to display slow changes in potential. […]
Antagonists are tested in two stages. […] In such cases pA2 values are calculated according to the formula […]

The subject of assay [3] is electroshock-induced convulsions. The assay can be described thus: inhibition of electroshock-induced convulsions in the mouse. The format is in vivo, mouse (OF-1). The settings on record: ip, 1 h, i.p., 60 minutes before shock, read-out: EDmin in the electroshock-induced convulsion test. The method, then:
E. Swinyard, J. Am. Pharm. Assoc. Scient. Ed. 38, 201 (1949) and J. Pharmacol. Exptl. Therap. 106, 319 (1952)]. In this test groups of 3 mice (18-26 g, OF-1, Sandoz Basle) receive the test substance in a dosage of 3.2-100 mg/kg i.p. After 60 minutes a 50 mA, 200 ms long shock is applied with corneal electrodes smeared with electrolyte jelly. This supra-threshold shock produces tonic extensor convulsions of all extremities. Inhibition of the hindlimb extension is taken as a protective action. After investigation of several dose-levels an EDmin is estimated.

With `NC(Cc1cc(CP(=O)(O)O)cc(-c2ccccc2)c1)C(=O)O` (single isomer, unassigned) [Example 16, (+)-α-Amino-3-(5-phosphonomethyl-[1.1'-biphenyl]-3-yl) propanoic acid], in assay [1], the “inhibition of the rise of plasma-corticosterone (social stress)” value is recorded as “inhibits significantly”.
As to `NC(Cc1cc(CP(=O)(O)O)cc(-c2ccc(Cl)cc2)c1)C(=O)O` (racemic) [Example 1, (±)-α-Amino-3-(4'-chloro-5-phosphonomethyl-[1.1'-biphenyl]-3-yl)propanoic acid], the “pA2 as NMDA receptor inhibitor” value in assay [2] amounted to 7.3. Besides, in assay [3], the minimal effective dose was < 50 mg/kg.
